Source: patent US20150139957A1, “GROWTH ENHANCING ADDITIVE FROM POMEGRANATE PLANT FOR POULTRY FEED” (GANIR (1992) LTD., priority 2012, published 2015)

Key:
Ross male broilers [1] = assay: Example 1: 42 d broiler trial, antibiotic in the feed present, absent or replaced; format: in vivo; conditions: PE1 4 kg per ton feed
Procedure: The effects of presence/absence/replacement of the antibiotics in the feed were examined. A group of 2000 Ross male broilers were randomly divided into four treatments and fed a mesh diet ad libitum. […] Body weight, feed intake and mortality were measured during the 42 d broiler trial. At the end of the trial, feed conversion was calculated and % cumulative mortality was recorded. Results indicated a 4.1% improved feed conversion in those birds which received an antibiotic growth promoter (Maxus™), compared to negative control (1.758 and 1.834 respectively). The addition of pomegranate extract powder improved feed conversion by 4.9% as compared to negative control treatment (1.744 and 1.834 respectively). Mortality results at end of trial were as follows: negative control 4.1%, antibiotic growth promoter 3.6% and pomegranate extract powder 1.4%.

Ross male broilers [2] = assay: Example 2: broiler trial testing the efficacy of a taste masking agent; format: in vivo; conditions: alternative probiotic growth additive, treatment 5
Text: The objective of this trial was to test the efficacy of a taste masking agent. The trial examined the performance parameters in 2000 Ross male broilers randomly divided into 5 treatment groups. All broilers were fed mash feed ad libitum. Treatment 1, negative control, without addition of any growth promoter in feed, treatment 2, positive control with an antibiotic growth promoter avilamycin (Maxus™), treatment 3 received 2 kg additive PE1 of the invention per ton feed, treatment 4 received 2 kg additive PE1 of the invention per ton feed with a taste masking agent including thaumatin, and treatment 5 received an alternative probiotic growth additive (lactobacillus). Use of the masking agents improved broiler body weight results from 28-44 d period by 4.2% (1480 g vs 1420 g). Final body weight results at 44 d was improved by 3.6% in those broilers that received the masking agent as compared to those without. (2748 vs 2652). Feed conversion improved by 5.4% in those broilers receiving masking agent (1.84 instead of 1.94 kg/kg).

Compound	cumulative mortality at end of trial (Ross male broilers [1]; 42 d trial, negative control 4.1%) [%]	improved feed conversion compared to negative control (Ross male broilers [1]; end of 42 d trial, diet ad libitum) [%]	feed conversion (Ross male broilers [1]; end of 42 d trial, negative control 1.834)	body weight throughout the trial versus both pomegranate extract groups (Ross male broilers [2])
COC[C@H]1O[C@@H](OC2OC[C@@H]3O[C@]4(O[C@H]3[C@H]2OC(=O)C(C)C)O[C@H](C)[C@@](O)(C(C)=O)[C@@H]2OCO[C@H]24)[C@@H](OC)[C@@H](O)[C@@H]1O[C@@H]1O[C@H](C)[C@H](OC)[C@H](O[C@H]2C[C@@]3(C)OC4(C[C@@H](O)[C@H](O[C@H]5C[C@@H](O)[C@H](OC(=O)c6c(C)c(Cl)c(O)c(Cl)c6OC)[C@@H](C)O5)[C@@H](C)O4)O[C@@H]3[C@@H](C)O2)[C@H]1O (stereo partly shown) [avilamycin]	3.6	4.1	1.758	
lactobacillus				consistently lower
